Patent publication EP1614683B1, “Indazole compounds and pharmaceutical compositions for inhibiting protein kinases, and methods for their use” (priority 1999, dated 2001)
Read-outs that look alike come from different tables or passages of the source.

What was measured:
[1] = biological target: LCK tyrosine kinase (Homo sapiens, UniProt P06239, C224D/P223M); experiment: LCK spectrophotometric assay; assay type: biochemical
Method: The spectrophotometric assay was carried out as described above for VEGF-R2, except for the following changes in concentration: LCK = 60 nM, MgCl2 = 0 mM, poly(E4Y1) = 20 mM.

[2] = biological target: human FGF-R1 (Homo sapiens, UniProt P11362, C488A/C584S/L457V); experiment: FGF-R spectrophotometric assay; assay type: biochemical
Chain of human FGF-R1 (P11362 456-766 L457V/C488A/C584S): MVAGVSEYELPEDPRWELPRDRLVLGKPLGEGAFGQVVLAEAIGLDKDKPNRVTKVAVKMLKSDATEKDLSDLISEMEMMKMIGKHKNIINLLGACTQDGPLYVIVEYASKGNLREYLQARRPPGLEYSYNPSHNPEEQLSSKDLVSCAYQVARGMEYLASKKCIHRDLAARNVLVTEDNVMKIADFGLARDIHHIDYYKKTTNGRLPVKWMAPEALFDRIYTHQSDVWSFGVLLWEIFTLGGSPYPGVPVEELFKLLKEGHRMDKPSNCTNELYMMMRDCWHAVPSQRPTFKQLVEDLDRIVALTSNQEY
Method: The spectrophotometric assay was carried out as described above for VEGF-R2, except for the following changes in concentration: FGF-R = 50 nM, ATP = 2 mM, and poly(E4Y1) =15 mM.

[3] = test system: human umbilical vein endothelial cells (HUVEC); experiment: HUVEC proliferation assay (VEGF-stimulated, MTT); assay type: cell-based; details: for IC50: Homo sapiens, HUVEC, Table 1
Method: This assay determines the ability of a test compound to inhibit the growth factor-stimulated proliferation of human umbilical vein endothelial cells ("HUVEC"). HUVEC cells (passage 3-4, Clonetics, Corp.) were thawed into EGM2 culture medium (Clonetics Corp) in T75 flasks. Fresh EGM2 medium was added to the flasks 24 hours later. Four or five days later, cells were exposed to another culture medium (F12K medium supplemented with 10% fetal bovine serum (FBS), 60 µg/mL endothelial cell growth supplement (ECGS), and 0.1 mg/mL heparin). Exponentially-growing HUVEC cells were used in experiments thereafter. Ten to twelve thousand HUVEC cells were plated in 96-well dishes in 100 µl of rich, culture medium (described above). The cells were allowed to attach for 24 hours in this medium. The medium was then removed by aspiration and 105 µl of starvation media (F12K+1% FBS) was added to each well. After 24 hours, 15 µl of test agent dissolved in 1% DMSO in starvation medium or this vehicle alone was added into each treatment well; the final DMSO concentration was 0.1%. One hour later, 30 µl of VEGF (30 ng/mL) in starvation media was added to all wells except those containing untreated controls; the final VEGF concentration was 6 ng/mL. Cellular proliferation was quantified 72 hours later by MTT dye reduction, at which time cells were exposed for 4 hours MTT (Promega Corp.).

[4] = Table 1, compound concentration 1 µM, read-out: FGF-P* (% inhibition)
[5] = Table 1, compound concentration 1 µM, read-out: Lck-P* (% inhibition)
[6] = mouse, in vivo, ip, 25 mg/kg, pH 2.3
[7] = mouse, in vivo, po, 50 mg/kg, pH 2.3
[8] = mouse, in vivo, po, 25 mg/kg, pH 2.3
[9] = PO, 25 mg/kg, vehicle PEG400:H2O pH 2.3 30:70

Chain of LCK tyrosine kinase (P06239 223-509 P223M/C224D): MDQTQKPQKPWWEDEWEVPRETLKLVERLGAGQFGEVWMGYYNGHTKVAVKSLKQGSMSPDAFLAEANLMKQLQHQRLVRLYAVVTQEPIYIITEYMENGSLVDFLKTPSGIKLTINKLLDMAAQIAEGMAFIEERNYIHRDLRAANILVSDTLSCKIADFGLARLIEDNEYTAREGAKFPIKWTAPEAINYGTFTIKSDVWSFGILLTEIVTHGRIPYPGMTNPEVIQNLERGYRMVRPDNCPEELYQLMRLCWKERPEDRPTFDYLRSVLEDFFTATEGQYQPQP

`C=CCOc1cc(-c2ccc3c(/C=C/c4ccc(OC)c(OC)c4)n[nH]c3c2)ccc1O` [1(c), 3-[E-2-(3,4-Dimethoxy-phenyl)vinyl]-6-(3-allyloxy-4-hydroxyphenyl)-1H-indazole] showed an inhibition at 1 µM ([1]; read-out: Lck-P* (% inhibition)) of 46%.
For `COc1cc(-c2ccc3c(-c4ccccc4)n[nH]c3c2)ccc1O` [2(b), 3-phenyl-6-(3-methoxy-4-hydroxy-phenyl)-1H-indazole], the Ki ([2]; read-out: FGF-P* (Ki, cell in µM), Table 1) was 228 µM.
Work on `Oc1cccc(Oc2ccc3c(/C=C/c4ccccc4)n[nH]c3c2)c1` [9(a), 3-(E-styryl)-6-[3-hydroxyphenoxy]-1H-indazole] yielded an IC50 ([3]; read-out: HUVEC IC50) of 870 nM.
In the case of `Cc1cnc(C(=O)Nc2cccc(N(C)c3ccc4c(/C=C/c5ccccc5)n[nH]c4c3)c2)s1` [12(d), 5-Methyl-thiazole-2-carboxylic acid {3-[methyl-(3-styryl-1H-indazol-6-yl)-amino]-phenyl)-amide], the inhibition at 1 µM [2, 4] is reported as 61%, the IC50 ([3]; read-out: HUVEC IC50) is reported as 8.1 nM and the inhibition at 1 µM [1, 5] is reported as 31%.
`CN(C)c1cccc(C(=O)Nc2cccc(N(C)c3ccc4c(/C=C/c5ccc6c(c5)OCO6)n[nH]c4c3)c2)c1` [16(c), N-(3-{[3-(2-Benzo[1,3]dioxol-5-yl-vinyl)-1H-indazol-6-yl]-methyl-amino}-phenyl)-3-dimethylamino-benzamide] gave an IC50 ([3]; read-out: HUVEC IC50) of 100 to 1000 nM.
In the case of `CN(c1cccc(NC(=O)c2cccc(C(F)(F)F)c2)c1)c1ccc2c(/C=C/c3ccc4c(c3)OCO4)n[nH]c2c1` [16(d), N-(3-{[3-(2-Benzo[1,3]dioxol-5-yl-vinyl)-1H-indazol-6-yl]-methyl-amino}-phenyl)-3-trifluoromethyl-benzamide], the inhibition at 1 µM [2, 4] is reported as 90%, the IC50 ([3]; read-out: HUVEC IC50) is reported as 11 nM and the inhibition at 1 µM [1, 5] is reported as 33%.
Compound `CN(c1cccc(NC(=O)c2ccc(O)c(C(C)(C)C)c2)c1)c1ccc2c(/C=C/c3ccc4c(c3)OCO4)n[nH]c2c1` [16(f)] has an IC50 ([3]; read-out: HUVEC IC50) of over 30 nM.
With `Cc1cncc(C(=O)Nc2cccc(C(=O)c3ccc4c(/C=C/c5ccccc5)n[nH]c4c3)c2)c1` [19(e), 6-[3-(5-methylpyridin-3-ylcarboxamide)benzoyl]-3-E-styryl-1H-indazole] the IC50 ([3]; read-out: HUVEC IC50) was over 300 nM.
Work on `C=C(c1cccc(NC(=O)OCc2ccccc2)c1)c1ccc2c(/C=C/c3ccccc3)n[nH]c2c1` [22(c)] yielded an IC50 ([3]; read-out: HUVEC IC50) of 38 nM.
In the case of `COc1cc(O)ccc1-c1ccc2c(-c3nc4ccccc4[nH]3)n[nH]c2c1` [24(d), 3-1H-Benzoimidazol-2-yl-6-(4-hydroxy-2-methoxyphenyl)-1H-indazole], the inhibition at 1 µM ([2]; read-out: FGF* (% inhibition)) is reported as 66% and the inhibition at 1 µM ([1]; read-out: Lck* (% inhibition)) is reported as 51%.
With `Cc1cc(C(=O)Nc2cccc(C(=O)c3ccc4c(/C=C/c5ccccn5)n[nH]c4c3)c2)n[nH]1` [41 (g)] the “Cmin (7 hr conc.)” value (mouse, in vivo, ip, 25 mg/kg, 420 min, pH 2.3) was 0 ng/mL, the AUCleast [6] was 1925 ng·h/mL and the T1/2 [6] was 0.3 h. The “Cmin (7 hr conc.)” value (mouse, in vivo, po, 50 mg/kg, 7 h, pH 2.3) was 1 ng/mL, the AUCleast [7] was 508 ng·h/mL and the T1/2 [7] was 0.7 h.
`Cc1cnccc1C(=O)Nc1cccc(C(=O)c2ccc3c(/C=C/c4ccccn4)n[nH]c3c2)c1` [41 (j)] gave an AUCleast [8] of 1476 ng·h/mL and a T1/2 [8] of 1.3 h.
Compound `Cc1cc(C(=O)Nc2cc(C(=O)c3ccc4c(/C=C/c5ccccn5)n[nH]c4c3)ccc2C)n(C(C)C)n1` [41 (kk)] has an AUCleast [8] of 11612 ng·h/mL and a T1/2 [8] of 2.0 h.
Work on `Cc1cc(C(=O)Nc2cccc(C(=O)c3ccc4c(/C=C/c5ccccn5)n[nH]c4c3)c2)on1` [41 (m)] yielded an AUCleast [6] of 1864 ng·h/mL, a T1/2 [6] of 2.3 h and an AUCleast [7] of 9 ng·h/mL.
`CCc1cc(C(=O)Nc2cccc(C(=O)c3ccc4c(/C=C/c5ccccn5)n[nH]c4c3)c2)n(C)n1` [41 (v)] gave an AUCleast [8] of 10949 ng·h/mL and a T1/2 [8] of 4.4 h.
For `CC(C)COC(=O)Nc1cccc(C(=O)c2ccc3c(/C=C/c4ccccn4)n[nH]c3c2)c1` [41 (y)], the AUCleast [9] was “Blq”, the Cmax [9] was “Blq” and the “Cmin (7 hr conc.)” value [9] was “blq”.
`O=C(Nc1cccc(C(=O)c2ccc3c(/C=C/c4ccccn4)n[nH]c3c2)c1)c1ccccc1` [42 (a)] showed an AUCleast [6] of 19899 ng·h/mL, a T1/2 [6] of 5.0 h and an AUCleast [7] of 8384 ng·h/mL. For the same compound, the T1/2 [7] was 2.0 h.
For `O=C(Nc1cccc(C(=O)c2ccc3c(-c4nc5ccccc5[nH]4)n[nH]c3c2)c1)c1ccccc1` [42 (b)], the AUCleast [6] was 3207 ng·h/mL, the T1/2 [6] was 3.0 h and the AUCleast [7] was 4747 ng·h/mL. The T1/2 [7] was 3.0 h.
Compound `O=C(Nc1cccc(C(=O)c2ccc3c(-c4nc5cccnc5[nH]4)n[nH]c3c2)c1)c1ccccc1` [42 (d)] has an AUCleast [6] of 1774 ng·h/mL, a T1/2 [6] of 1.4 h and an AUCleast [7] of 46 ng·h/mL.
Compound `O=C(Nc1cccc(C(=O)c2ccc3c(/C=N/n4cccc4)n[nH]c3c2)c1)c1ccccc1` [45 (b)] has an AUCleast [6] of 11361 ng·h/mL, a T1/2 [6] of 2.0 h and an AUCleast [7] of 1636 ng·h/mL. For the same compound, the T1/2 [7] was 3.0 h.
In the case of `CCn1nc(C)cc1C(=O)Nc1cc(Nc2ccc3c(/C=C/c4ccccn4)n[nH]c3c2)c(F)cc1C` [48 (a)], the AUCleast [6] is reported as 27000 ng·h/mL and the AUCleast [8] is reported as 26636 ng·h/mL.
`Cc1cc(C(=O)Nc2cc(Nc3ccc4c(/C=C/c5ccccn5)n[nH]c4c3)c(F)cc2C)n(C)n1` [48 (b)] showed an AUCleast [8] of 2191 ng·h/mL and a T1/2 [8] of 4 h.
`Cc1cc(C(=O)Nc2cc(Nc3ccc4c(/C=C/c5ccccn5)n[nH]c4c3)ccc2F)n(C)n1` [49 (a)] gave an AUCleast [8] of 712 ng·h/mL.
`Cc1cc(C(=O)Nc2cc(Nc3ccc4c(/C=C/c5ccccn5)n[nH]c4c3)ccc2C)n(C)n1` [49 (b)] gave an AUCleast [8] of 33750 ng·h/mL.
Work on `CCn1nc(C)cc1C(=O)Nc1cccc(C(=O)c2ccc3c(/C=C/c4ccccn4)n[nH]c3c2)c1.Cl` [59 (a)] yielded an AUCleast (mouse, in vivo, po, 8 mg/kg) of 7707 ng·h/mL, a T1/2 (mouse, in vivo, po, 8 mg/kg) of 1.5 h and an AUCleast (mouse, in vivo, po, 40 mg/kg) of 57240 ng·h/mL. For the same compound, the T1/2 (mouse, in vivo, po, 40 mg/kg) was 2.4 h, the AUCleast (mouse, in vivo, po, 200 mg/kg) was 156153 ng·h/mL and the T1/2 (mouse, in vivo, po, 200 mg/kg) was 9.4 h.
Compound `Cc1cc(C(=O)Nc2cccc(C(=O)c3ccc4c(/C=C/c5ccccn5)n[nH]c4c3)c2)n(C)n1.Cl` [59 (b)] has an AUCleast (mouse, in vivo, po, 50 mg/kg) of 276467 ng·h/mL.
Work on `CCn1nc(C)cc1C(=O)Nc1cc(Nc2ccc3c(/C=C/c4ccccn4)n[nH]c3c2)c(F)cc1C.Cl` [59 (c)] yielded an AUCleast (mouse, in vivo, po, 25 mg/kg) of 327135 ng·h/mL.
`Cc1cc(C(=O)Nc2cc(Nc3ccc4c(/C=C/c5ccccn5)n[nH]c4c3)ccc2F)n(C)n1.Cl` [59 (d)] gave an AUCleast (mouse, in vivo, po, 8 mg/kg) of over 24696 ng·h/mL, an AUCleast (mouse, in vivo, po, 40 mg/kg) of over 32297 ng·h/mL and an AUCleast (mouse, in vivo, po, 200 mg/kg) of over 123206 ng·h/mL.
Compound `CCn1nc(C)cc1C(=O)Nc1cccc(Oc2ccc3c(/C=C/c4ccccn4)n[nH]c3c2)c1.Cl` [59 (e)] has an AUCleast (mouse, in vivo, po, 25 mg/kg) of 12510 ng·h/mL and a T1/2 (mouse, in vivo, po, 25 mg/kg) of 21 h.
In the case of `NC(=O)c1ccccc1Sc1ccc2c(/C=C/c3ccccn3)n[nH]c2c1` [H-X1], the “% inhibition of the proliferation of HUVEC, 0.5 nM” value ([3]; Library Table II, Y = S (reference Example), nominal concentration 0.5 nM, crude library reaction mixtures, >50% considered significant) is reported as 9% and the “% inhibition of the proliferation of HUVEC, 2 nM” value ([3]; Library Table II, Y = S (reference Example), nominal concentration 2 nM, crude library reaction mixtures, >50% considered significant) is reported as 30%.
For `COc1cc(O)ccc1-c1ccc2c(-c3nc4c(SCCO)cccc4[nH]3)n[nH]c2c1` [Reference Example 25(f), 3-[4-(2-hydroxyethylsulfanyl)-1H-benzoimidazol-2-yl)-6-(2-methoxy-4-hydroxyphenyl)-1H-indazole], the inhibition at 1 µM ([2]; read-out: FGF* (% inhibition)) was 56% and the inhibition at 1 µM ([1]; read-out: Lck* (% inhibition)) was 58%.
For `CNC(=O)c1cccc2[nH]c(-c3n[nH]c4cc(-c5ccc(O)cc5OC)ccc34)nc12` [Reference Example 25(j), 3-(4-methylcarbamoyl-1H-benzoimidazol-2-yl)-6-(2-methoxy-4-hydroxy-phenyl)-1H-indazole], the inhibition at 1 µM ([2]; read-out: FGF* (% inhibition)) was 70%.
Compound `CC(=O)N1CCC(C(=O)Nc2cccc(Oc3ccc4c(/C=C/c5ccc(Cl)cc5)n[nH]c4c3)c2)CC1` [Reference Example 30(b), 6-[3-(1-acetylpiperidin-4-ylcarboxamido)phenoxy]-3-E-[2-(4-chlorophenyl)ethenyl]-1H-indazole] has an IC50 ([3]; read-out: HUVEC IC50) of 90 nM.
Work on `O=C(Nc1cccc(Oc2ccc3c(/C=C/c4ccccc4)n[nH]c3c2)c1)c1cccc2[nH]ccc12` [Reference Example 30(d), 6-[3-(indol-4-ylcarboxamido)phenoxy]-3-E-stryrylindazole] yielded an IC50 ([3]; + albumin, read-out: HUVEC + albumin IC50) of 3.8 nM.
With `CC(C)(C)c1ccc(C(=O)Nc2cccc(C(=O)c3ccc4c(/C=C/c5ccccn5)n[nH]c4c3)c2)cc1` [Reference Example 41(s), 6-[3-(4-t-butylbenzamido)benzoyl}-3-E-[2-(pyridin-2-yl)ethenyl]-1H-indazole] the inhibition at 1 µM [2, 4] was 86% and the inhibition at 1 µM [1, 5] was 53%.
